Values of other authors in patent publication US9642799B2, “Crystalline 6-(2-((4-amino-3-(3-hydroxyphenyl)-1H-pyrazolo[3,4-D]pyrimidin-1-yl)methyl)-3-(2-chlorobenzyl)-4-0X0-3,4-dihydroquinazolin-5-yl)-N,N-bis(2-methoxyethyl)hex-5-ynamide” (Respivert Limited, priority 2012, dated 2017).

Assays:
murine model = details: administered by aerosolisation
[1] = elicited by either LPS or cigarette smoke
[2] = system: ovalbumin-sensitized, ovalbumin-challenged mice
mice = details: stimulated by TNFα

In the case of `Nc1nc(N)c2nc(-c3cccc(O)c3)c(-c3cccc(O)c3)nc2n1` [TG100-115], the “pulmonary eosinophilia, interleukin-13, mucin accumulation and airways hyperesponsiveness” value (murine model) is given as “reported to inhibit” and the pulmonary neutrophilia [1] is given as “able to inhibit”.

For `Cc1ccccc1-n1c(Cn2cnc3c(N)ncnc32)nc2cccc(C)c2c1=O` [IC-87114], the “airways hyper-responsiveness, IgE release, pro-inflammatory cytokine expression, inflammatory cell accumulation into the lung and vascular permeability” value [2] is given as “found to inhibit” and the “neutrophil accumulation in the lungs and neutrophil function” value (mice) is given as “lowered”.
